In ChEMBL document CHEMBL1151005 (Bioorg Med Chem Lett, 1995):

Each compound was assayed against Human immunodeficiency virus type 1 reverse transcriptase (Human immunodeficiency virus 1, UniProt Q72547) (assay: Inhibitory activity against HIV-1 Reverse transcriptase (RT) was determined).

In order of falling IC50:
1. CCN1c2cnccc2C(=O)N(C)c2cccnc21  6.4 µM
2. CCN1c2ccncc2N(C)C(=O)c2cccnc21  1.6 µM
3. CCN1c2cnccc2N(C)C(=O)c2cccnc21  0.35 µM
